According to patent publication US9861679B2, “Method of treating cancer” (priority 2014, dated 2018):

Tests used:
[1] = system: low- and intermediate-1-risk Myelodysplastic syndromes; conditions: cited from earlier work
C57BL/6 mice = assay: Tolerability of SMAC mimetic plus p38 inhibitor in non tumour-bearing mice; format: in vivo; conditions: LY2228820 15 mg/kg combined with GT13072 5 mg/kg; FIG. 7C
Description: FIG. 7: Mice tolerate administration of birinapant plus p38 inhibitor. A. Mononuclear cells isolated from healthy donor by Ficoll sedimentation were treated for 48 h with indicated drugs. CD34^+ cell death was measured by staining with PI and flow cytometry. For each donor sample, graphs show mean of at least n=2 technical replicates across n=2-5 independent experiments. B and C. C57BL/6 mice were intra-peritoneally injected with vehicle (captisol 6%) or birinapant (B) or GT13072 (C) or LY2228820 or combination of LY2228820 and SM at indicated concentration. Mice received 8 injections twice a week over 4 weeks. Mice were euthanised 2 weeks after the treatment stopped. Graphs show organs, body weights and blood cell populations with 6 mice/group (B), 4 mice/group (C). Error bars are SEM.
To assess the safety of SMAC mimetic plus p38 inhibitor C57BL6 mice were injected by intra-peritoneal route twice a week for 4 weeks with either vehicle (6% Captisol) or 15 mg/kg of LY222820 or 5 mg/kg birinapant±15 mg/kg LY2228820, or 10 mg/kg birinapant±15 mg/kg LY2228820. Another cohort received either vehicle or 5 mg/kg of GT13072, or 15 mg/kg of LY222820 or combination.
200 μL of blood was collected from the retro-orbital plexus into tubes containing potassium ethylenediaminetetraacetic acid (Sarstedt) and analyzed in an Advia 2120 automated hematologic analyzer (Bayer).

[2] = system: Bone Marrow Derived Macrophages (BMDM); assay: TNFα production by ELISA in BMDM treated with SMAC mimetic ± p38 inhibitors (kinase inhibitors screen); format: cell-based, mouse; conditions: 500 nM CompA, GT13072 or birinapant ± 1 μM LY2228820, FIG. 1B
Description: FIG. 1: p38 inhibitors increase TNFα production and cell death induced by SMAC mimetics. A. Bone Marrow Derived Macrophages (BMDM) were pretreated ±1 μM of the indicated p38 inhibitors for 30 min then treated with 500 nM of SMAC mimetic Compound A (CompA) for 24 h. TNFα production was measured by ELISA of supernatants. B. BMDM were pretreated 500 nM of SMAC mimetic Compound A, GT13072 or birinapant ±1 μM of LY2228820. TNFα production was measured by ELISA of supernatants. N=3 biological repeats and error bars are SEM. C. BMDM were pretreated±the indicated dose of MK2 inhibitor PF-3644022 and the p38 inhibitor LY2228820, VX-702, TAK-715 or VX-745 for 30 min then treated with 500 nM of SMAC mimetic Compound A. Cell viability was measured after 24 h of treatment using CellTiter-Glo® (CTG) reagent. N=3 biological repeats and error bars are SEM. BMDMs from C56/B16, p38α^LysMCre or Mk2^−/− were cultured for 6 days in DMEM+10% FBS (v/v)+20% L929 mouse fibroblasts (a source of macrophage colony stimulating factor), plated and assayed the following day. BMDMs cells were seeded and assayed in the presence of L929 conditioned medium. AML cells were cultured in IMDM+10% FBS (v/v)+2.5 ng/ml of IL-3. […] After treatment with SMAC mimetic with or without kinases inhibitors cell viability was measured by staining with propidium iodide (2 μg/mL) or by using CellTiter-Glo® (Promega). […]

[3] = system: Bone Marrow Derived Macrophages (BMDM); assay: BMDM cell viability (CellTiter-Glo) after SMAC mimetic Compound A ± p38 or MK2 inhibitor; format: cell-based, mouse; conditions: inhibitor 30 min then 500 nM Compound A, 24 h, FIG. 1C
Description: FIG. 1: p38 inhibitors increase TNFα production and cell death induced by SMAC mimetics. A. Bone Marrow Derived Macrophages (BMDM) were pretreated ±1 μM of the indicated p38 inhibitors for 30 min then treated with 500 nM of SMAC mimetic Compound A (CompA) for 24 h. TNFα production was measured by ELISA of supernatants. B. BMDM were pretreated 500 nM of SMAC mimetic Compound A, GT13072 or birinapant ±1 μM of LY2228820. TNFα production was measured by ELISA of supernatants. N=3 biological repeats and error bars are SEM. C. BMDM were pretreated±the indicated dose of MK2 inhibitor PF-3644022 and the p38 inhibitor LY2228820, VX-702, TAK-715 or VX-745 for 30 min then treated with 500 nM of SMAC mimetic Compound A. Cell viability was measured after 24 h of treatment using CellTiter-Glo® (CTG) reagent. N=3 biological repeats and error bars are SEM.
BMDMs from C56/B16, p38α^LysMCre or Mk2^−/− were cultured for 6 days in DMEM+10% FBS (v/v)+20% L929 mouse fibroblasts (a source of macrophage colony stimulating factor), plated and assayed the following day. BMDMs cells were seeded and assayed in the presence of L929 conditioned medium. AML cells were cultured in IMDM+10% FBS (v/v)+2.5 ng/ml of IL-3. NCI-H929 cells were cultured in RPMI+10% FBS (v/v). Cell suspension from breast ER+ patient derived tumours was cultured in mammosphere media. After treatment with SMAC mimetic with or without kinases inhibitors cell viability was measured by staining with propidium iodide (2 μg/mL) or by using CellTiter-Glo® (Promega).

[4] = system: MLL-ENL-luciferase leukemic cells; assay: Anti-tumour efficacy in mice bearing MLL-ENL-luciferase leukemia; format: in vivo, mouse; conditions: mice bearing MLLENL-Luc, after one week of treatment; birinapant 5 mg/kg, LY2228820 10 mg/kg i.p. twice a week; FIG. 8A
Description: FIG. 8: Combination of birinapant with p38 inhibitor decreases AML tumor burden. Mice bearing MLLENL-luciferase (A and B) or MLL-AF9 (C) leukemic cells received i.p injections of birinapant (5 mg/kg), LY2228820 (10 mg/kg) or the combined drugs twice a week for 4 weeks. A. Representative data of in vivo imaging of leukaemia progression in mice bearing MLL-ENL-luciferase. B. Kaplan-Meier survival curve of mice bearing MLL-ENL-luciferase and treated or not with birinapant, LY222820 or combined therapy. C. Kaplan-Meier survival curve of mice bearing MLL-AF9 and treated or not with birinapant, LY222820 or combined therapy.
To assess the anti-tumour efficacy of SMAC mimetic plus p38 inhibitor C57BL6 Albinos mice were injected by intra-venous route with 5·10^5 MLLENLluc. Luciferase activity was measured at D4 and D8 after leukemic cells injection to ensure engraftment. Treatment started at D8. Mice were treated twice a week for 4 weeks with either vehicle (6% Captisol), 5 mg/kg of Birinapant, or 10 mg/kg of LY222820 or combination. Mice were monitored for leukemia progression once a week using the in vivo bioluminescent imaging. […]
To assess the therapeutic efficacy of the combination multiple primary MLL-ENL and MLL-AF9 leukemias were transplanted and the secondary recipient mice were treated with the different drugs. […] The engraftment and trafficking were evaluated by in vivo bioluminescent imaging. […]

[5] = system: advanced solid tumours and lymphoma; conditions: intravenous administration, Phase I, patients; cited from earlier work
[6] = system: human AML patient samples; assay: In vitro response of human AML patient samples to Birinapant; format: cell-based; conditions: single agent
[7] = oral administration, Phase I/II, patients

C[C@@H]1CN(Cc2ccc(F)cc2)[C@@H](C)CN1C(=O)c1cc2c(C(=O)C(=O)N(C)C)cn(C)c2cc1Cl [Talmapimod]
complete remission [1, 7]: only one patient achieved a complete remission | tolerability [1, 7]: well tolerated | duration of complete remission ([1]; the one patient with complete remission): more than 2 years

CC(C)(C)Cn1c(N)nc2ccc(-c3[nH]c(C(C)(C)C)nc3-c3ccc(F)cc3)nc21 [LY2228820]
effect on splenomegaly induced by GT13072 (C57BL/6 mice): did not even exacerbate | TNF production of three different smac-mimetics [2]: increased TNF production | cell death induced by SMAC mimetics [3]: dramatically increased

CCc1nc(-c2cccc(C)c2)c(-c2ccnc(NC(=O)c3ccccc3)c2)s1 [TAK-715]
cell death induced by SMAC mimetics [3]: dramatically increased

O=c1ncn2nc(Sc3ccc(F)cc3F)ccc2c1-c1c(Cl)cccc1Cl [VX-745]
cell death induced by SMAC mimetics [3]: dramatically increased

CC[C@H](NC(=O)[C@H](C)NC)C(=O)N1C[C@@H](O)C[C@H]1Cc1c(-c2[nH]c3cc(F)ccc3c2C[C@@H]2C[C@H](O)CN2C(=O)[C@H](CC)NC(=O)[C@H](C)NC)[nH]c2cc(F)ccc12 [Birinapant]
response to treatment (bioluminescent imaging) [4]: did not | anti-tumour activity [5]: evidence of anti-tumour activity | tolerability [5]: well tolerated with no dose-limiting toxicities | response to Birinapant treatment in vitro [6]: some human AML patient samples did not respond

Cc1ccc(-c2ccc3c(ccc4sc5c(c43)NC[C@@H](C)NC5=O)n2)cn1 [PF-3644022]
cell death induced by SMAC mimetics [3]: dramatically increased

NC(=O)c1ccc(N(C(N)=O)c2c(F)cccc2F)nc1-c1ccc(F)cc1F [VX-702]
cell death induced by SMAC mimetics [3]: dramatically increased
